In brackets after ≈: the same amount, converted by molar mass. Entries after “also recorded” stand apart in the source; their conditions may differ. Read-outs that look alike come from different tables or passages of the source.
What was measured:
CYP2D6 = conditions: concentrations up to 10 μM; ref Lu et al. (2011); cited from earlier work
simvastatin metabolism = conditions: rat and human hepatocytes and microsomes; ref Ubeaud et al. (1999); cited from earlier work
[1] = test system: felodipine metabolism by pig intestinal tissue slices; conditions: ref Fasinu et al. (2010); cited from earlier work
Wistar rats [2] = conditions: 50 mg/kg bw per day, 4 weeks; ref Motawi et al. (2014); cited from earlier work
[3] = Solubility of naringenin in various solvents; type: physicochemical; conditions: for Naringenin concentration (solubility): 25°C
[4] = test system: quinine metabolism in human liver microsomes; conditions: substrate quinine; ref Fasinu et al. (2013), Ho et al. (2001); cited from earlier work
CYP2C9 = conditions: ref Lu et al. (2011); cited from earlier work
CYP2C19 = conditions: ref Lu et al. (2011); cited from earlier work
[5] = ref Ma et al. (2006), cited from earlier work
[6] = ref Kanaze et al. (2007), cited from earlier work
Pig caecum = conditions: anaerobic incubation 0-24 h; ref Labib et al. (2004); cited from earlier work
Sprague Dawley rats [7] = assay: Dose range-finding study for the EOGRT study, dietary; type: in vivo, rat
CYP2B6 = conditions: concentrations up to 10 μM; ref Lu et al. (2011); cited from earlier work
Wistar rats [8] = conditions: Gavage, M, 3/group; ref Ortiz‐Andrade et al. (2008); cited from earlier work
Wistar rats [9] = assay: In vivo micronucleus assay in peripheral blood; design: species or system rat
Sprague Dawley rats [10] = assay: Extended one-generation reproductive toxicity; type: in vivo, rat
[11] = F1 C1A females, high‐dose group

For `O=C1CC(c2ccc(O)cc2)Oc2cc(O)cc(O)c21` (centres unmarked) [naringenin, 4H‐1‐Benzopyran‐4‐one, 2,3‐dihydro‐5,7‐dihydroxy‐2‐(4‐hydroxyphenyl)‐], the inhibition (CYP2D6) is given as “No appreciable inhibition”, the Ki (simvastatin metabolism) is given as 5 to 30 µM and the IC50 [1] is given as 180 µM. For the same compound, the “histopathological examination of the liver” value (Wistar rats [2]) was “slight inflammatory cell infiltration in the portal areas”, the solubility ([3]; 80% ethanol, 25 °C, organic solvent or mixture) was ~60 mg/mL (≈ 220 mM) and the Solubility in ethanol ([3]; 95% ethanol) was “Soluble”. The “Naringenin concentration (solubility)” value ([3]; Ethanol) was 10 % (w/w), the “Naringenin concentration (solubility)” value ([3]; Ethanol, 80%) was 5 % (w/w) and the “Naringenin concentration (solubility)” value ([3]; Propylene glycol) was 2.5 % (w/w). The solubility ([3]; ethanol, 25 °C, organic solvent or mixture) was ~125 mg/mL (≈ 459 mM), the solubility ([3]; in water) was “Almost insoluble” and the Solubility in other ([3]; other solvents) was “Soluble in ether and benzene”. The solubility ([3]; propylene glycol, 25 °C, organic solvent or mixture) was ~25 mg/mL (≈ 91.8 mM), the solubility ([3]; water, 25 °C) was 0.05 mg/mL (≈ 0.184 mM) and the IC50 [4] was 139 to 188 µM. For the same compound, the IC50 (CYP2C9) was < 5 µM, the IC50 (CYP2C19) was < 5 µM and the “C max for total naringenin” value ([5]; 30 mg/kg bw) was 16.9 ng/mL. For the same compound, the “C max of unconjugated naringenin” value ([5]; 30 mg/kg bw) was 2.9 ng/mL, the “time to C max for total naringenin (including the conjugates)” value (shortened to “time to C max for total naringenin”) ([5]; 30 mg/kg bw) was 0.5 h and the “C max for total naringenin” value ([5]; 90 mg/kg bw) was 28 ng/mL. The “C max of unconjugated naringenin” value ([5]; 90 mg/kg bw) was 3.7 ng/mL, the “plasma half-life of total naringenin” value ([5]; 90 mg/kg bw) was 7.6 h and the “time to C max for total naringenin” value ([5]; 90 mg/kg bw) was 2 h. The “C max for total naringenin” value ([5]; 270 mg/kg bw) was 43.8 ng/mL, the “C max of unconjugated naringenin” value ([5]; 270 mg/kg bw) was 4.4 ng/mL and the “plasma half-life of total naringenin” value ([5]; 270 mg/kg bw) was 10.5 h. For the same compound, the “time to C max for total naringenin” value ([5]; 270 mg/kg bw) was 2 h, the “time to C max of unconjugated naringenin” value ([5]; 30, 90 or 270 mg/kg bw oral gavage) was ≤ 15 min and the “naringenin excreted in bile” value ([5]; bile duct-cannulated rats) was 12%. The “naringenin excreted in urine” value [5] was 6.25%, the Cmax ([6]; single oral 135 mg (496 μmol) capsule) was 7.5 µM and the “cumulative urinary excretion, percentage of administered dose” value ([6]; single oral 135 mg capsule, 24 h after dosing) was 5.81 ± 0.81%. For the same compound, the “T max (time of peak plasma level)” value ([6]; single oral 135 mg capsule) was 4 h, the “peak plasma concentration (total naringenin)” value ([6]; single oral 135 mg capsule) was 7.4 µM and the “time of first appearance in plasma after dosing” value ([6]; single oral 135 mg capsule) was 20 min. For the same compound, the “Half-life of elimination (plasma)” value ([6]; single oral 135 mg capsule, listed as NAR‐A) was “T ½ ~ 2.3 h”, the “Results: microbial transformation products” value (Pig caecum) was “Naringenin was transformed to 3‐(4‐hydroxyphenyl)‐propionic acid and 3‐phenylpropionic acid” and the mean pre-coital interval (Sprague Dawley rats [7]; 20,000 mg/kg feed (G3)) was 7.6 days. The “clinical signs, mortality, morbidity” value (Sprague Dawley rats [7]; all dose groups) was “No clinical signs of toxicity, no mortality or morbidity”, the “dose up to which no toxicity was produced” value (Sprague Dawley rats [7]; females) was ≤ 2724 mg/kg bw per day and the “dose up to which no toxicity was produced” value (Sprague Dawley rats [7]; males) was ≤ 2205 mg/kg bw per day. For the same compound, the “dietary concentration up to which no toxicity was produced” value (Sprague Dawley rats [7]; males 29 days, females 51–62 days) was “up to 25,000 mg/kg feed”, the inhibition (CYP2B6) was “No appreciable inhibition” and the LD50 (Wistar rats [8]) was > 5000 mg/kg bw. For the same compound, the “% MNPCE frequency” value (Wistar rats [9]; 500 mg/kg bw per day) was 0.06 ± 0.01%, the “% MNPCE frequency” value (Wistar rats [9]; 2000 mg/kg bw per day) was 0.06 ± 0.02% and the “maximum tolerated dose (MTD)” value (Wistar rats [9]; gavage at 0, 24 and 45 h, male and female rats) was 2000 mg/kg bw per day. For the same compound, the “% MNPCE frequency” value (Wistar rats [9]; mid‐dose (1000 mg/kg bw per day), male rats, blood 3 h after last administration) was 0.08 ± 0.01%, the Absolute organ weight (Sprague Dawley rats [10]; F1 C1A females) was “↑ G3, G4 thymus; also recorded: ↑ G4 spleen and iliac lymph nodes” and the “Thyroid hormone levels: T4” value (Sprague Dawley rats [10]; F1 C1A females) was “T4: –”. The “increase in mean platelet count” value (Sprague Dawley rats [10]; [11]) was 25%, the mean platelet count (Sprague Dawley rats [10]; [11]) was 1138.20 × 10^3 cells/μL and the Absolute organ weight (Sprague Dawley rats [10]; F1 C1A males) was “↓ G2 and G3 testes and iliac lymph nodes; also recorded: ↓ G4 iliac lymph nodes”. The “Lymphocyte typing (spleen): T helper cells (CD4+)” value (Sprague Dawley rats [10]; F1 C1A males) was “T helper cells (CD4+): ↑ G2, G3 and G4, no dose‐related trend”, the “Thyroid hormone levels: T4” value (Sprague Dawley rats [10]; F1 C1A males) was “T4: –” and the “Thyroid hormone levels: TSH” value (Sprague Dawley rats [10]; F1 C1A males) was “TSH: –”. The Absolute organ weight (Sprague Dawley rats [10]; F1 C1B females) was “↑ G4 thymus; also recorded: ↑ G3 uterus with cervix”, the Absolute organ weight (Sprague Dawley rats [10]; F1 C1B males) was “↑ G3 thymus” and the Absolute organ weight (Sprague Dawley rats [10]; F1 pups (surplus) females, PND 21) was “PND 21: ↓ G2 spleen; ↑ G3 spleen; ↓ G2 brain”. For the same compound, the Absolute organ weight (Sprague Dawley rats [10]; F1 pups (surplus) males, PND 21) was “PND 21: ↑ G3 spleen”, the “reduction of anogenital distance (AGD)” value (Sprague Dawley rats [10]; F1 pups, PND4, highest dose females) was 4% and the decreased normal sperm (Sprague Dawley rats [10]; F1‐C1A cohort) was ~ 1%. The “increased sperm with abnormalities” value (Sprague Dawley rats [10]; F1‐C1A cohort) was 50%, the “increase of thymus gland weight” value (Sprague Dawley rats [10]; F1‐C1A females, highest dose group) was 24% and the “reduction of daily sperm production” value (Sprague Dawley rats [10]; F1‐C1A males, high dose) was 2%. The “reduction of daily sperm production” value (Sprague Dawley rats [10]; F1‐C1A males, low dose) was 7%, the “decrease of absolute iliac lymph node weight” value (Sprague Dawley rats [10]; F1‐C1A males, mid dose) was 30% and the mean pre-coital interval (Sprague Dawley rats [10]; F1‐CB cohort, G3) was 7.6 days. The “change in mean pup weight” value (Sprague Dawley rats [10]; F2, PND 1, males, group G4‐C1B) was −4%, the “change in mean pup weight” value (Sprague Dawley rats [10]; F2, PND 4, females, group G4‐C1B) was −8% and the “change in mean pup weight” value (Sprague Dawley rats [10]; F2, PND 14, females, group G3‐C1B) was −5%. For the same compound, the “change in mean pup weight” value (Sprague Dawley rats [10]; F2, PND 14, females, group G4‐C1B) was −5%, the “oestrous cycle length, increase following exposure” value (Sprague Dawley rats [10]; P females, significant in lowest and highest exposed groups) was “up to 6%” and the mean pre-coital interval (Sprague Dawley rats [10]; P generation, G4) was 8 days. The “decrease in mean urinary pH value” (Sprague Dawley rats [10]; P males, high‐dose group) was 12%, the “increase in mean urinary specific gravity” value (Sprague Dawley rats [10]; P males, high‐dose group) was 1% and the “margin of exposure (MoE)” value (Sprague Dawley rats [10]; adults, chronic APET as flavouring substance, NOAEL 1320 mg/kg bw per day) was 1590. The “margin of exposure (MoE)” value (Sprague Dawley rats [10]; adults, chronic combined exposure incl. other food sources) was 1390, the “fertility indices (pregnancy, parturition and gestation)” value (Sprague Dawley rats [10]; all tested dose groups, P and F1‐C1B generations) was 100% and the “margin of exposure (MoE)” value (Sprague Dawley rats [10]; children, acute combined exposure) was 48. The “margin of exposure (MoE)” value (Sprague Dawley rats [10]; children, chronic APET as flavouring substance, NOAEL 1320 mg/kg bw per day) was 630, the “margin of exposure (MoE)” value (Sprague Dawley rats [10]; children, chronic combined exposure incl. other food sources) was 550 and the post-implantation loss (Sprague Dawley rats [10]; high‐dose P females) was 12.6%. For the same compound, the “NOAEL (dietary concentration)” value (Sprague Dawley rats [10]; mid‐dose) was 20,000 mg/kg feed and the NOAEL (Sprague Dawley rats [10]; mid‐dose, P males, pre‐cohabitation period) was 1320 mg/kg bw per day.

Source: paper PMC11094580 (EFSA Journal, 2024)
